Experimental data from patent US7416724B2, “Diagnosis and treatment of diseases arising from defects in the tuberous sclerosis pathway” (The Regents of the University of Michigan, priority 2002, dated 2008).
Entries after “also recorded” stand apart in the source; their conditions may differ. Read-outs that look alike come from different tables or passages of the source.

Experiments:
[1] = tested on: S6K; assay: Phosphorylation of S6K, immunoblot with anti-phospho S6K antibody; assay type: cell-based; conditions: for phosphorylation of S6K on T389: endogenous S6K
Text: (§1) Anti-S6K, anti-phospho S6K, anti-mTOR, anti-phospho mTOR, anti-Akt, anti-phospho Akt, antiphospho 4EBP-1 and anti-phospho ERK antibodies were from Cell Signalling Inc. Anti-TSC2 and anti-Myc antibodies were from Santa Cruz Biotechnology (Santa Cruz, Calif.). Anti-HA and anti-Flag antibodies were from Covance (Princeton, N.J.) and Sigma (St Louis, Mo.), respectively. HA-tagged S6K1 (II) and GST-S6 constructs were obtained from J. Blenis (Columbia Univ., NY, N.Y.). […] All other DNA constructs, including H-RasV12, PTEN, PTEN-CS, Akt, Akt-KM, Flag-ubiquitin and Flag-4E-BP1, were laboratory stock. All mutant constructs of TSC2 were created by PCR mutagenesis and verified by DNA sequencing. LY294002 was from Calbiochem (San Diego, Calif.); phosphatase was from New England Biolabs (Beverly, Mass.). MG132 was from the Peptide Institute. Cycloheximide and wortmannin were from Sigma. D-PBS was from Gibco. Rapamycin was from Cell Signalling.
(§2) HEK293 cells were seeded and maintained in Dulbecco's modified Eagle's medium (DMEM) containing 10% fetal bovine serum (FBS). Transfection was performed in serum-free conditions using Lipofectamine reagent (Invitrogen, Carlsbad, Calif.) in accordance with the manufacturer's instructions. In brief, 4 h after transfection, the cells were recovered in DMEM containing 10% FBS for 16 h and then starved for […]. Cells were then lysed in lysis buffer (10 mM Tris-HCl at pH 7.5, 100 mM sodium chloride, 1% NP-40, 1% Triton X-100, 50 mM sodium fluoride, 2 mM EDTA, 1 mM phenyl methylsulphonyl fluoride, 10 g ml^−1 leupeptin and 10 g ml^−1 aprotinine) and immunoprecipitated with the indicated antibodies and protein G-Sepharose beads. Immunocomplexes were analyzed by SDS-polyacrylamide gel electrophoresis (PAGE).

[2] = tested on: Akt; assay: Phosphorylation of Akt, immunoblot; assay type: cell-based
Text: as §1
(§3) HEK293 cells were seeded and maintained in Dulbecco's modified Eagle's medium (DMEM) containing 10% fetal bovine serum (FBS). Transfection was performed in serum-free conditions using Lipofectamine reagent (Invitrogen, Carlsbad, Calif.) in accordance with the manufacturer's instructions. […] Immunocomplexes were analyzed by SDS-polyacrylamide gel electrophoresis (PAGE).

[3] = tested on: TSC2; assay: TSC2 mobility shift on SDS-PAGE; assay type: cell-based; conditions: for mobility of TSC2 / 2-DG induced mobility shift: HEK293 cells, 10 μM, added 30 minutes before 2-DG, FIG. 11C
Experimental: as §2

[4] = tested on: 4EBP1; assay: Phosphorylation of 4EBP1, immunoblot; assay type: cell-based
Text: as §1, §2

[5] = tested on: S6; assay: Phosphorylation of S6, immunoblot; assay type: cell-based; conditions: FIG. 8C
Experimental: as §2

[6] = tested on: mTOR; assay: Phosphorylation of mTOR at Ser 2448, immunoblot with anti-phospho-mTOR antibody; assay type: cell-based; conditions: 25 mM, FIG. 8C
Text: as §1, §3

[7] = tested on: AMPK; assay: AMPK activation (T172 phosphorylation); assay type: cell-based; conditions: 25 mM
[8] = tested on: TSC2; assay: In vivo 32P-labelling and two-dimensional phosphopeptide mapping of TSC2; assay type: cell-based, rat
Experimental: HEK293 cells were cotransfected with HA-tagged TSC2, Myc-tagged TSC1 and the indicated plasmids. Cells were phosphate- and serum-starved for 4 h before incubation with 0.25 mCi ml^−1 32P-orthophosphate (ICN) for 4 h.
Cells were washed once with ice-cold PBS and lysed. HA-tagged TSC2 was immunoprecipitated, resolved by SDS-PAGE and transferred to a PVDF membrane. Phosphorylated TSC2 was visualized by autoradiography and phosphopeptide mapping was then performed. In brief, the phosphorylated TSC2 bands were excised, fixed in methanol and incubated in 500 1 of 0.5% polyvinylpyrrolidone-40 dissolved in 100 mM acetic acid for 30 min at 37° C. The sample were then digested with 20 g of TPCK-treated trypsin (Sigma) at 37° C. in 75 mM ammonium bicarbonate buffer at pH 8.0 containing 5% acetonitrile. After digestion, samples were dried under vacuum and suspended in 10 1 of water. Samples were spotted onto a cellulose plate and first dimensional electrophoresis was performed using 1% ammonium bicarbonate buffer at pH 8.9. The plates were separated by chromatography in the second dimension in chromatography buffer (n-butanol:pyridine:acetic acid:water; 20:24:6:30). The plates were dried and phosphopeptides were visualized by autoradiography.

[9] = tested on: intracellular ATP; assay: Intracellular ATP levels and AMP/ATP ratio; assay type: cell-based; conditions: cells treated with 25 mM
[10] = tested on: AMPK and TSC2; assay: Co-immunoprecipitation of AMPK and TSC2; assay type: cell-based
Experimental: as §2

[11] = tested on: HEK293 cells; assay: Cell size of HEK293 cells; assay type: cell-based; conditions: 12.5 mM 2-DG, TSC2 RNAi, or 20 nM rapamycin for 72 hours, FIG. 14D
[12] = tested on: TSC1; assay: TSC1 mobility on SDS-PAGE; assay type: cell-based; conditions: FIG. 11A
Experimental: as §2

[13] = tested on: S6K; conditions: concentrations between 20 and 100 mM (Dennis et al., 2001); cited from earlier work
[14] = tested on: 4EBP1; conditions: concentrations between 20 and 100 mM (Dennis et al., 2001); cited from earlier work
[15] = tested on: AMPK; conditions: Corton et al., 1995; cited from earlier work
[16] = tested on: intracellular ATP; conditions: concentrations between 20 and 100 mM (Dennis et al., 2001); cited from earlier work
[17] = tested on: eukaryotic elongation factor 2 (eEF2); conditions: Horman et al., 2002; cited from earlier work
[18] = tested on: S6K; conditions: Kimura et al., 2003; Krause et al., 2002; cited from earlier work
[19] = tested on: S6K-dC104; assay: Thr 389 phosphorylation and kinase activity of rapamycin-resistant mutant S6K-dC104; assay type: cell-based; conditions: FIG. 7a
Experimental: For the S6K assays, HEK293 cells grown in six-well plates were transfected with 10-20 ng HA-S6K constructs, with or without various plasmids, as indicated in the figures. HA-S6K was immunoprecipitated from serum-starved cells with an anti-HA antibody and analyzed by in vitro kinase assay using purified GST-S6 as a substrate (Pearson et al., EMBO J. 14, 5279-5287 (1995)).

[20] = tested on: LEF (TSC2-/- epithelial) cells; assay: Cell death / apoptosis of LEF cells; assay type: cell-based; conditions: vector and wild type TSC2 expressing LEF cells
[21] = EEF8 (TSC2-/-) fibroblasts, vector infected, FIG. 13C
[22] = EEF8 cells expressing wild type TSC2, FIG. 13C
[23] = depletion of cellular ATP, FIG. 8A

Which results are given for `c1cc(-c2cnn3cc(-c4ccc(OCCN5CCCCC5)cc4)cnc23)ccn1` [Compound C]?
S6K dephosphorylation induced by glucose deprivation ([1]; FIG. 11F, listed as AMPK inhibitor): significantly blocked; also recorded: partially blocks; inhibitory effect of 2-DG on S6K phosphorylation ([1]; HEK 293 cells, FIG. 11E, listed as AMPK inhibitor): significantly reversed; also recorded: blocks the 2-DG induced dephosphorylation; Akt phosphorylation ([2]; HEK 293 cells, AMPK inhibitor treatment): had no effect; mobility of TSC2 / 2-DG induced mobility shift [3]: blocks the 2-DG induced mobility shift; mobility of TSC2 / 2-DG induced mobility shift ([3]; listed as compound C): increased the mobility

What does the source list for `N#CC(C#N)=NNc1ccc(OC(F)(F)F)cc1` [FCCP]?
S6K phosphorylation [1]: caused a decrease; phosphorylation of S6K [1]: caused a dephosphorylation; phosphorylation of 4EBP1 [4]: caused a dephosphorylation

For `O=CC[C@@H](O)[C@H](O)[C@H](O)CO` [2-DG, 2-deoxy-glucose], which “phosphorylation of S6K on T389” value ([1]; 25 mM, FIG. 8C) is on record?
Its value is “effectively inhibited; also recorded: dephosphorylation”.

And the “S6K phosphorylation as a function of treatment time” value ([1]; 25 mM, time course, FIG. 8E)?
The value was “concomitant dephosphorylation”.

And the S6K phosphorylation [1, 21]?
Its S6K phosphorylation is “caused little decrease”.

What about the S6K phosphorylation [1, 22] of the same molecule?
Its S6K phosphorylation is “significantly decreased”.

And the “phosphorylation of S6K” value [1, 23]?
The value was “caused a dephosphorylation”.

What about the 4EBP1 phosphorylation ([4]; EEF4 (TSC2+/+) cells, FIG. 10G) of the same molecule?
The 4EBP1 phosphorylation was “inhibition of phosphorylation”.

What about the 4EBP1 phosphorylation [4, 21] of the same molecule?
Its 4EBP1 phosphorylation is “caused little decrease”.

And the 4EBP1 phosphorylation [4, 22]?
Its 4EBP1 phosphorylation is “significantly decreased”.

And the “phosphorylation of endogenous 4EBP1” value ([4]; FIG. 8C)?
The value was “specifically inhibits; also recorded: dephosphorylation”.

What about the “phosphorylation of 4EBP1” value [4, 23] of the same molecule?
Its value is “caused a dephosphorylation”.

And the “phosphorylation of endogenous S6” value [5]?
Its value is “dephosphorylation”.

What about the “phosphorylation of mTOR S2448” value [6] of the same molecule?
Its value is “inhibited; also recorded: dephosphorylation”.

And the Akt phosphorylation ([2]; 25 mM, FIG. 8C)?
The Akt phosphorylation was “had little effect”.

What about the “T172 phosphorylation in AMPK” value ([7]; FIG. 8D) of the same molecule?
The value was “dramatic increase; also recorded: induces phosphorylation”.

And the “AMPK activation as a function of treatment time” value ([7]; time course, FIG. 8E)?
Its value is “rapid AMPK activation”.

What about the “mobility shift of TSC2” value ([3]; FIG. 11A) of the same molecule?
The value was “mobility shift”.

What about the “phosphorylation of TSC2 phosphopeptides” value ([8]; 25 and 40 mM, FIG. 12A) of the same molecule?
Its value is “enhanced phosphorylation of several peptides; also recorded: induce TSC2 phosphorylation on multiple spots”.

What about the ATP levels ([9]; FIG. 8F) of the same molecule?
The ATP levels was “statistically significant reduction; also recorded: decreases”.

What about the AMP/ATP ratio ([9]; FIG. 8G) of the same molecule?
The AMP/ATP ratio was “increases”.

And the “interaction between endogenous AMPK and overexpressed TSC2” value ([10]; FIG. 9D)?
The value was “enhances the interaction”.

What about the “interaction between endogenous AMPK and TSC2 (co-immunoprecipitation)” value ([10]; HEK293 cells, FIG. 9A, B) of the same molecule?
The value was “interact preferentially; also recorded: enhanced; also recorded: stimulates the interaction”.

What about the cell size [11] of the same molecule?
Its cell size is “decreases cell size; also recorded: significantly decreased cell size”.

And the “mobility of TSC1” value [12]?
The value was “did not alter the mobility”.

What about the S6K phosphorylation [13] of the same molecule?
Its S6K phosphorylation is “inhibition”.

What about the 4EBP1 phosphorylation [14] of the same molecule?
Its 4EBP1 phosphorylation is “inhibition”.

What about the AMPK activation [15] of the same molecule?
Its AMPK activation is “activate AMPK”.

What about the “reduction of intracellular ATP levels” value [16] of the same molecule?
Its value is 20 to 50%.

And the “phosphorylation of eEF2” value [17]?
The value was “increase phosphorylation”.

What about the S6K activity [18] of the same molecule?
Its S6K activity is “inhibit S6K activity”.

With `NC(=O)c1ncn([C@@H]2O[C@H](COP(=O)(O)O)[C@@H](O)[C@H]2O)c1N` [AICAR, 5-aminoimidazole-4-carboxyamide ribonucleotide] as the molecule, how does the AMPK activation [15] read?
The AMPK activation was “activate AMPK”.

What about the “phosphorylation of eEF2” value [17] of the same molecule?
Its value is “increase phosphorylation”.

And the S6K activity [18]?
Its S6K activity is “inhibit S6K activity”.

Which “phosphorylation of Thr 389, Thr 421 and Ser 424 of S6K” value ([1]; FIG. 1b) does the source give for “insulin: stimulus of the insulin-Akt pathway, used at 400 nM” here?
Its value is “stimulated”.

And the “phosphorylation of TSC2 phosphopeptides” value ([8]; insulin (400 nM), LY294002 or rapamycin (20 nM), FIG. 3c)?
The value was “slightly increased phosphorylation”.

For `CO[C@H]1C[C@@H]2CC[C@@H](C)[C@@](O)(O2)C(=O)C(=O)N2CCCC[C@H]2C(=O)O[C@H]([C@H](C)C[C@@H]2CC[C@@H](O)[C@H](OC)C2)CC(=O)[C@H](C)/C=C(\C)[C@@H](O)[C@@H](OC)C(=O)[C@H](C)C[C@H](C)/C=C/C=C/C=C/1C` [rapamycin], which “phosphorylation of Thr 389 in S6K-dC104” value [19] is on record?
The value was “not inhibited”.

Which “phosphorylation of S6K on T389” value ([1]; 25 mM, FIG. 8C) does the source give for `OC[C@@H](O)[C@@H](O)[C@H](O)[C@H](O)CO` [mannitol] here?
Its value is “had little effect”.

And the “phosphorylation of S6K” value ([1]; 100 mM, FIG. 8C)?
The value was “significantly inhibited”.

With `COc1cc([C@@H]2c3cc4c(cc3[C@@H](O[C@@H]3O[C@@H]5CO[C@@H](C)O[C@H]5[C@H](O)[C@H]3O)[C@H]3COC(=O)[C@H]23)OCO4)cc(OC)c1O` [etoposide] as the molecule, how does the cell death [20] read?
The cell death was “caused cell death”.

For `CC(=O)c1c(O)c(C)c(O)c(Cc2c(O)c3c(c(C(=O)/C=C/c4ccccc4)c2O)OC(C)(C)C=C3)c1O` [Rottlerin], which S6K phosphorylation ([1]; EEF4 (TSC2+/+) fibroblasts, FIG. 10F) is on record?
Its S6K phosphorylation is “caused a decrease”.

What about the “phosphorylation of S6K” value [1, 23] of the same molecule?
Its value is “caused a dephosphorylation”.

And the “phosphorylation of 4EBP1” value [4, 23]?
The value was “caused a dephosphorylation”.
